Experimental data reported in paper PMC7274485, “A symbiotic bacterium of shipworms produces a compound with broad spectrum anti-apicomplexan activity” (PLoS Pathogens, 2020).
pEC50: −log10 of the molar value. Entries after “also recorded” stand apart in the source; their conditions may differ. Like-named read-outs stand apart in the source and are kept apart here.

Assays:
[1] = system: B. bigemina; assay: B. bigemina-infected erythrocyte proliferation, SYBR green incorporation; type: cell-based; conditions: Babesia bigemina, infected erythrocytes, 72 hours, read-out: EC50 against B. bigemina
Protocol: B. bovis and B. bigemina inhibitor response assays were adapted from components of [79–81]. B. bovis and B. bigemina parasites were maintained in bovine erythrocytes under microaerophilic stationary phase conditions in vitro as described elsewhere. Prior to use in growth studies parasites were grown in erythrocytes from which leukocytes were depleted. Cultures were set up at 0.20% parasitized erythrocytes, in quadruplicate, in complete medium supplemented with trtE. Final concentration of DMSO in all cultures was 1%, and was consistent throughout. Following 72h growth under 90% nitrogen, 5% oxygen, 5% carbon dioxide cells were harvested by thorough resuspension, and transferred to a black, opaque 96-well plate. Cells were freeze-thawed at -80°C overnight, then mixed with an equal volume of SYBR Green lysis buffer. Lysis buffer was composed of 20 mM Tris, pH 7.5, 5 mM EDTA, 0.008% (w/v) saponin, 0.08% (v/v) NP40, and contained 0.2 μl 10,000x SYBR Green I dye ml^-1 (S7563; Invitrogen; Carlsbad, CA). Plates were incubated for one hour at room temperature in the dark prior to reading in a microplate reader, at 485 nm excitation and 528 nm emission wavelengths.

[2] = system: T. gondii; assay: Intracellular T. gondii growth inhibition, luciferase expression in HFF cells; type: cell-based; conditions: Toxoplasma gondii; luciferase expressing RH or ME49 strain in HFF cells; trtE added 24 hours post-infection, read 24 hours later; purification method 1 or 2; read-out: EC50 against intracellular T. gondii
Protocol: To obtain sufficient trtE for in vitro and in vivo experiments, bacterial growth conditions were optimized, and a modified purification method was developed and validated by ESI-HRMS, LC/MS/MS and NMR (purification method 2; see methods and S8–S9 Figs). To determine the effective concentration at which trtE inhibited the growth of 50% of T. gondii parasites (EC50), HFF cells were seeded into 96 well plates and infected with luciferase expressing T. gondii tachyzoites. 24 hours post-infection two-fold serial dilutions of trtE, purified by method 1 or method 2, or DMSO vehicle control were added to the infected cells. 24 hours later, the infected cells were lysed and parasite growth quantified by luciferase expression. The EC50 of trtE against intracellular T. gondii was determined to be 3 nM regardless of purification method.
T. gondii parasite lines were maintained by passage in HFFs as previously described. […] Growth was monitored by luciferase expression using Bright-glo Luciferase assay system (Promega Corp., Madison, WI). […] Infected cells were then incubated for 72 hours before growth was quantified by luciferase expression. […]

[3] = system: Sarcocystis neurona; assay: Sarcocystis neurona GFP/Luc merozoite growth in bovine turbinate cells, luciferase expression; type: cell-based; conditions: 24 hours treatment, read-out: EC50 against S. neurona
Protocol: Culture of Sarcocystis neurona GFP/Luc merozoites in bovine turbinate cells and in vitro drug response assays were conducted as previously described.
A. Bovine turbinate cells infected with luciferase expressing Sarcocystis neurona merozoites were treated with trtE for 24 hours and parasite growth evaluated by luciferase expression. […] B. Theileria equi-infected erythrocytes were incubated with trtE or DMSO vehicle control and proliferation was measured after 72 hours by SYBR green incorporation. Percent proliferation was calculated relative to DMSO treated controls. […] (DOCX) Click here for additional data file.

[4] = system: Plasmodium falciparum; assay: P. falciparum-infected erythrocyte proliferation, SYBR green incorporation; type: cell-based; conditions: Plasmodium falciparum, Erythrocyte
Description: The maintenance of Plasmodium falciparum cultures and conducting of in vitro inhibitor response assays have been previously described.

[5] = system: Human Foreskin fibroblasts; assay: Cytotoxicity for host cells, cellular ATP (CellTiter-Glo): HFF
Protocol: (§1) Toxicity was evaluated by measuring cellular ATP concentrations.
(§2) HCT8, HFF and BT cells were seeded in 96-well plates to achieve 20–30% confluence after 24 hours of growth.

[6] = system: HCT-8 colonic cancer cells
Protocol: as §1, §2

[7] = system: Cryptosporidium parvum; assay: Neonatal mouse model of Cryptosporidium parvum infection; type: in vivo, mice; conditions: for Number of parasites in the intestine (histology infection score): 2 mg/kg orally every 12 hours, four doses, 5 days post infection, purification method 1
Protocol: Of all apicomplexans that infect both humans and domesticated animals, Cryptosporidium is a particular challenge for human and veterinary medicine as there is currently no effective treatment for this parasite. We chose to evaluate the in vivo efficacy of trtE using a neonatal mouse model of C. parvum infection. […] In a preliminary experiment, ten, 8 day old mice were infected with C. parvum and then treated with four doses of 2 mg/kg of trtE (purification method 1) given orally every 12 hours for 2 days. Control mice received DMSO vehicle control. Five days post infection, mice were euthanized and the intestines processed for histology. Infection was scored by visual evaluation of infection intensity throughout the intestine by an investigator blinded to treatment. […] Eight-day-old mice, infected with C. parvum, were treated orally twice daily with trtE at 0.4, 4 or 40 mg/kg beginning two days post-infection and continuing for 2 days. On day 5, mice were euthanized and intestines processed for quantitative PCR to quantify infection.
8-day-old mice were infected with 5x10^4 oocysts by oral gavage. In the initial preliminary experiment using trtE purified by method 1, mice were treated 48 hrs post infection with 2 mg/kg trtE every 12 hours by oral gavage for a total of 4 treatments. Control mice received vehicle control (DMSO diluted in DMEM containing 10% fetal calf serum). Mice were sacrificed 5 days post infection and intestines prepared for histological evaluation. Slides were blinded and the intensity of infection scored in the terminal jejunum, ileum, caecum and colon as previously described. Infection intensity scores for each region were added together to give a total infection score for the animal.
In the second set of experiments, mice were infected and treated as before, with 0.4, 4 or 40 mg/kg of trtE purified using method 2. Control mice received vehicle control in parallel. Mice were sacrificed 5 days post-infection and infection quantified by qPCR as previously described. The experiment was conducted three times.

[8] = system: Bovine turbinate cells; assay: Cytotoxicity for host cells, cellular ATP (CellTiter-Glo): BT cells
Protocol: as §1, §2

[9] = 20–30% confluency, 24 hours, cellular ATP

In the case of `CC1CCC=CC=CCCC(O)CC(=O)CC2CCC(C)C3(O2)O[B-]24OC(C(=O)O1)C1(OC(CCC1C)CC(=O)CC(O)CCC=CC=CCCC(C)OC(=O)C3O2)O4` (centres unmarked) [trtE, tartrolon E], the pEC50 [1] was 8.03, the pEC50 [2] was 8.52 and the pEC50 [3] was 7.89. For the same compound, the pEC50 ([4]; Table 1, rounded, read-out: EC50 against P. falciparum (Table 1)) was 10.00, the pEC50 ([4]; infected erythrocytes, 72 hours, read-out: EC50 against P. falciparum) was 9.98 and the “TC50 (median toxic concentration) for HFF” value [5, 9] was 7.9 µM. For the same compound, the “Selectivity Index, T. gondii vs Human Foreskin fibroblasts” value ([5]; TC50/EC50) was 2633, the “TC50 (median toxic concentration) for HCT-8” value [6, 9] was 6.3 µM and the “Selectivity Index, C. parvum vs HCT-8” value ([6]; TC50/EC50) was 1636. For the same compound, the “Number of parasites in the intestine (histology infection score)” value [7] was “significantly reduced the number of parasites”, the “Number of parasites in the intestine (histology infection score)” value ([7]; listed as TrtE) was “significantly reduced the number of parasites in the intestine” and the “Reduction of intestinal Cryptosporidium infection (qPCR)” value ([7]; 4 mg/kg orally twice daily for 2 days from two days post-infection, day 5, purification method 2) was 85%. The “Intestinal Cryptosporidium infection (qPCR)” value ([7]; 40 mg/kg orally twice daily for 2 days from two days post-infection, day 5, purification method 2) was “nearly eliminated”, the “Overt signs of toxicity in neonatal mice (discussion)” value ([7]; four doses of 40 mg/kg over two days) was “did not exhibit overt signs of toxicity” and the “Overt signs of toxicity in trtE treated neonatal mice” value ([7]; oral doses up to 40 mg/kg twice daily for 2 days) was “no overt toxicity was observed; also recorded: did not observe overt toxicity; also recorded: no overt signs of toxicity”. For the same compound, the “TC50 (median toxic concentration) for BT cells” value [8, 9] was 16.8 µM and the “Selectivity Index, S. neurona vs Bovine turbinate cells” value ([8]; TC50/EC50) was 1302.
